Reference: PubChem BioAssay (NCI)
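Values below derive from 48-hour exposures of cells grown in 96-well plates, with endpoints linearly interpolated between the two concentrations bracketing the appropriate inhibition level. Here, GI50 denotes the concentration required for 50% inhibition of growth. Definition used: TGI = concentration required for complete inhibition of growth.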

How the values were obtained:
Assay in all cases: growth of human tumour cells (NCI), 48 h
PC-3 prostate = tested on: PC-3 prostate
786-0 renal = tested on: 786-0 renal
M14 melanoma = tested on: M14 melanoma
A498 renal = tested on: A498 renal
SF-539 CNS = tested on: SF-539 CNS
NCI/ADR-RES ovarian = tested on: NCI/ADR-RES ovarian
UO-31 renal = tested on: UO-31 renal
BT-549 breast = tested on: BT-549 breast
MCF7 breast = tested on: MCF7 breast
SK-MEL-2 melanoma = tested on: SK-MEL-2 melanoma

| Compound | TGI (PC-3 prostate) [µM] | TGI (786-0 renal) [µM] | TGI (M14 melanoma) [µM] | TGI (A498 renal) [µM] | TGI (SF-539 CNS) [µM] | TGI (NCI/ADR-RES ovarian) [µM] | TGI (UO-31 renal) [µM] | TGI (BT-549 breast) [µM] | TGI (MCF7 breast) [µM] | TGI (SK-MEL-2 melanoma) [µM] | GI50 (PC-3 prostate) [µM] | GI50 (786-0 renal) [µM] | GI50 (M14 melanoma) [µM] | GI50 (A498 renal) [µM] | GI50 (SF-539 CNS) [µM] | GI50 (NCI/ADR-RES ovarian) [µM] | GI50 (BT-549 breast) [µM] | GI50 (MCF7 breast) [µM] | GI50 (SK-MEL-2 melanoma) [µM] | GI50 (UO-31 renal) [µM] |
| --- | --- | --- | --- | --- | --- | --- | --- | --- | --- | --- | --- | --- | --- | --- | --- | --- | --- | --- | --- | --- |
| C[C@]12CC[C@H]3[C@@H](CCC4=C[C@@H](OC5OCC(OC6OC(CO)C(O)C(O)C6O)C(O)C5O)CC[C@@]43C=O)[C@@]1(O)CCC2C1=CC(=O)OC1 (stereo not given in full) | 4.14 | 1.23 | 2.79 | 2.99 | 1.68 | 3.28 | 3.45 | 0.881 | > 100 | 5.93 | – | – | – | – | – | – | – | – | – | – |
| COC(=O)C12C3C4C1C1C2C3C41C(=O)N(C(C)C)C(C)C (stereo not given) | – | > 100 | > 100 | > 100 | > 100 | – | > 100 | – | – | – | – | – | – | – | – | – | – | – | – | – |
| O=C(Nc1ccccc1C(=O)Nc1nccs1)c1ccccc1 | > 100 | > 100 | > 100 | > 100 | > 100 | > 100 | > 100 | > 100 | > 100 | > 100 | – | – | – | – | – | – | – | – | – | – |
| C=Cc1cnc([N+](=O)[O-])n1C | > 100 | > 100 | > 100 | 98.7 | > 100 | > 100 | > 100 | > 100 | > 100 | – | – | – | – | – | – | – | – | – | – | – |
| O=C(c1ccccc1)c1ccccc1C(=O)c1ccccc1 | > 100 | > 100 | > 100 | > 100 | > 100 | > 100 | – | > 100 | 10.9 | > 100 | 37.7 | 50.6 | 31.9 | 4.34 | 77.5 | 27.4 | 32 | 1.76 | 58.6 | – |
| CCC1(CC)C(=O)[N-]C(=O)[N-]C1=O.[Au+].[Au+].c1ccc([PH+](c2ccccc2)c2ccccc2)cc1.c1ccc([PH+](c2ccccc2)c2ccccc2)cc1 | – | 2.14 | 2.05 | – | – | – | 3.04 | – | – | – | – | 0.911 | 0.752 | – | – | – | – | – | – | 1.65 |
| COc1cc(CNC(=O)CCSc2nc3ccccc3c(=O)n2Cc2cc(OC)c(OC)c(OC)c2)cc(OC)c1OC | > 100 | 29 | 5.8 | 21.1 | 10.7 | 30.9 | > 100 | 44.1 | > 100 | 8.14 | 10.8 | 5.1 | 2.23 | 4.05 | 2.86 | 3.59 | 4.9 | 3.46 | 2.82 | 5.9 |
| O=C1C2=C(c3ccccc31)C(c1ccc(F)cc1)N1C(=O)CCSC1=N2 (stereo not given) | – | > 100 | > 100 | > 100 | > 100 | – | > 100 | – | – | > 100 | – | – | – | – | – | – | – | – | – | – |
| CN/N=C(\C(=O)Nc1ccc([N+](=O)[O-])cc1[N+](=O)[O-])C1NC(=O)NC1=O (stereo not given) | – | > 100 | > 100 | > 100 | > 100 | – | > 100 | – | – | > 100 | – | – | – | – | – | – | – | – | – | – |
| Cc1[nH]n(-c2ccccc2)c(=O)c1C(=O)c1ccccc1 | > 25 | > 25 | > 25 | > 25 | > 25 | > 25 | > 25 | > 25 | > 25 | > 25 | 19.7 | > 25 | > 25 | > 6.04 | > 25 | > 23.8 | > 25 | > 25 | > 25 | > 25 |
| C=C(C)[C@@H]1CC[C@]2(C)[C@H](CC=C3[C@@H]4[C@H](C)[C@@H](C)CC[C@]4(CO)CC[C@]32C)[C@@]1(C)CCCN | 7.48 | 1.58 | 1.76 | 11.2 | 1.73 | 2.17 | 2.24 | 9.23 | – | 5.04 | 1.65 | 0.841 | 0.846 | 3.83 | 0.945 | 0.986 | 2.56 | – | 1.73 | 0.823 |
| N#Cc1c(NCc2ccccc2)nc(NCc2ccccc2)c(C#N)c1-c1cccc(O)c1 | 28.8 | 27.6 | > 100 | 5.77 | 22.1 | 48 | 87.6 | 35.8 | 88.4 | 23 | 4.66 | 13 | 6.65 | 2.01 | 5.18 | 13.8 | 10.1 | 12.7 | 6.23 | 6.12 |
| Cc1cc(Cl)ccc1NC(=O)CCCC(=O)C(C(=O)c1ccccc1)c1ccccc1 (stereo not given) | – | > 100 | > 100 | > 100 | – | – | – | – | – | > 100 | – | – | – | – | – | – | – | – | – | – |
| CC(=O)NS(=O)(=O)c1ccc(-n2nc(-c3ccccc3)cc2C2=CC(=O)C=CC2=O)cc1 | > 100 | > 100 | > 100 | – | – | – | > 100 | > 100 | > 100 | > 100 | > 100 | 54.4 | > 100 | – | – | – | 48.9 | > 100 | > 100 | > 100 |
| Cc1ccc(SCC(O)=C2C(=O)CCCC2=O)cc1 | – | > 100 | > 100 | – | > 100 | – | > 100 | – | – | > 100 | – | – | – | – | – | – | – | – | – | – |
| N=C1C(c2nc(-c3ccc(Br)cc3)cs2)=C(O)CN1CC1CCCO1 (stereo not given) | > 100 | > 100 | – | > 100 | > 100 | > 100 | > 100 | > 100 | > 100 | > 100 | > 100 | > 100 | – | > 100 | > 100 | > 100 | > 100 | > 100 | > 100 | > 100 |
| C[C@@H](c1ccccc1)N(CC#N)C1CCC[C@H]1O (stereo not given in full) | – | > 100 | > 100 | > 100 | > 100 | – | > 100 | – | – | > 100 | – | – | – | – | – | – | – | – | – | – |
